For one test, the system named is T84 cells. As to the kind of experiment: STa-induced chloride transport in T84 cells (SPQ). As to conditions: increasing STa concentrations, 50 μM compound. The format is cell-based, human. The procedure:
The chloride transport assay was performed by a method known in the art (West, M. R.; Molloy, C. R., A microplate assay measuring chloride ion channel activity. Anal Biochem 1996, 241, (1), 51-8). In some experiments, MQAE was used as a fluorescent sensor for chloride anions and in other experiments, SPQ was used to detect chloride efflux from T84 cells.
This experiment followed the protocol described in Examples 2 and 10. SPQ was used to detect chloride efflux from T84 cells.

The target in test [1] is T1, soluble guanylyl cyclase (sGC) (Rattus norvegicus, UniProt P19686+P20595).
T1 sequence (P20595 1-619): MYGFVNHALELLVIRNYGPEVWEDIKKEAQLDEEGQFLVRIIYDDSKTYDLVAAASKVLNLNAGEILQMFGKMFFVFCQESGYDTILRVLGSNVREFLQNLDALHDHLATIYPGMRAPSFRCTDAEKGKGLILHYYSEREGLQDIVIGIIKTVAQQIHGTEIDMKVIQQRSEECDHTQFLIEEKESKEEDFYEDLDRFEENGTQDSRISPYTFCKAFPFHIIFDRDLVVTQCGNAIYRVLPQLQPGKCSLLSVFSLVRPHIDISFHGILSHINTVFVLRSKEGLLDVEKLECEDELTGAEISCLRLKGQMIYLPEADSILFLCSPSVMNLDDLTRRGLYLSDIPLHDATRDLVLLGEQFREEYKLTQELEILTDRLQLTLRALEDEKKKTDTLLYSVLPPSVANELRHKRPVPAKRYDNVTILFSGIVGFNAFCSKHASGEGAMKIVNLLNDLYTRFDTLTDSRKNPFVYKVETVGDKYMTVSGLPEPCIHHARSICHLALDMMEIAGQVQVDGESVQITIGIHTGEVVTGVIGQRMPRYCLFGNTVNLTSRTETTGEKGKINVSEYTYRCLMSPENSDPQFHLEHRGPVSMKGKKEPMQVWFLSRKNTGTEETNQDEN
T1 sequence (P19686 1-690): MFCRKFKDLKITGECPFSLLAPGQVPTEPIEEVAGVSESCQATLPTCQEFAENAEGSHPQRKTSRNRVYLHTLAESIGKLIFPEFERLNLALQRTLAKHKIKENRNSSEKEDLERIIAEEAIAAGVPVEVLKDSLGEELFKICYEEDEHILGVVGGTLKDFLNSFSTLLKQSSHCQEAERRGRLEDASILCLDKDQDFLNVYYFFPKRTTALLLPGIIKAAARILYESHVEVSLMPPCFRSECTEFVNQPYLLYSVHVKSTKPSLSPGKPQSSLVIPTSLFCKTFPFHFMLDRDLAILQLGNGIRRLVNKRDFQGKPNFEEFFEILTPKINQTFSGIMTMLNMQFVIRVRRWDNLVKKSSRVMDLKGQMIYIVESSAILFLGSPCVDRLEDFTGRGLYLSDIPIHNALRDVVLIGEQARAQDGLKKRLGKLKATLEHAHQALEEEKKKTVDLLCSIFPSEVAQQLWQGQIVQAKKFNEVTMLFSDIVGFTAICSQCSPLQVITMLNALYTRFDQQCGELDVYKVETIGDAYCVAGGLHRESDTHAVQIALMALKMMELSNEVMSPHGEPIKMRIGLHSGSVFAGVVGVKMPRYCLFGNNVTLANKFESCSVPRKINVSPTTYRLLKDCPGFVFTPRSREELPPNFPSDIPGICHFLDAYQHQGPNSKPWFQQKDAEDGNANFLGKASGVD
In words: Nitric oxide donor-induced cyclic GMP accumulation in RFL-6 fibroblast cells. The conditions noted are these: RFL-6 cells, 10 μM benzotrifuroxan, 50 μM compound.

SMILES strings stand for the structures.

The source of these data is patent publication US20100035867A1 (priority 2006, published 2010).

On to `Cn1c2c(c(=O)n(C)c1=O)C(c1cccc(Br)c1)C1=C(N2)c2ccccc2C1=O` (centres unmarked) [compound IIb], for which the “STa-induced increase in chloride efflux” value in the test on T84 cells is reported as “significantly suppressed”. Further, the “inhibition of cyclic GMP accumulation (FIG. 6)” value in test [1] is listed as “inhibition”.
